Data set [1] is described as follows: Liver microsomal stability study, mouse. The format is in vitro ADME. The conditions noted are these: Mouse liver microsomes. The procedure:
(§1) The above compounds were diluted to a 1.5 μM intermediate working solution with 0.1 M potassium phosphate buffer containing 0.75 mg/mL liver microsomes, and then 30 μL of the intermediate working solution was dispensed into reaction plates for different time points (0, 5, 15, 30, 45, 60 min). 150 μL of methanol solution containing internal standard was added to the 0 min plate wells. For the other time points (5, 15, 30, 45, 60 min), the sample plates were pre-incubated at 37° C. for 5 min, after which the reaction was initiated with 15 μL of 6 mM NADPH solution and timing was started. 15 μL of 6 mM NADPH solution was added to the 0 min samples to balance the system. At 5 min, 15 min, 30 min, 45 min, and 60 min, respectively, 150 μL of methanol solution containing internal standard was added to the reaction wells to terminate the reaction. After the reaction was complete, the plates were shaken on a shaker at 600 rpm for 10 min, then centrifuged at 4000 rpm for 15 min. 80 μL of supernatant from each well was transferred to a 96-well sample plate containing 150 μL of ultrapure water, mixed, and then analyzed by LC/MS to calculate T1/2.
For orientation: Liver microsomes are vesicles of endoplasmic reticulum, rich in cytochrome P450 enzymes.

Data set [2] is described as follows: Liver microsomal stability study, rat. In kind it is in vitro ADME. To be noted: Rat liver microsomes. The procedure:
as §1

For data set [3], the target named is T1, PARP7 (Homo sapiens, UniProt Q7Z3E1).
T1 construct: purchased BPS 80527
T1 sequence (Q7Z3E1 1-657): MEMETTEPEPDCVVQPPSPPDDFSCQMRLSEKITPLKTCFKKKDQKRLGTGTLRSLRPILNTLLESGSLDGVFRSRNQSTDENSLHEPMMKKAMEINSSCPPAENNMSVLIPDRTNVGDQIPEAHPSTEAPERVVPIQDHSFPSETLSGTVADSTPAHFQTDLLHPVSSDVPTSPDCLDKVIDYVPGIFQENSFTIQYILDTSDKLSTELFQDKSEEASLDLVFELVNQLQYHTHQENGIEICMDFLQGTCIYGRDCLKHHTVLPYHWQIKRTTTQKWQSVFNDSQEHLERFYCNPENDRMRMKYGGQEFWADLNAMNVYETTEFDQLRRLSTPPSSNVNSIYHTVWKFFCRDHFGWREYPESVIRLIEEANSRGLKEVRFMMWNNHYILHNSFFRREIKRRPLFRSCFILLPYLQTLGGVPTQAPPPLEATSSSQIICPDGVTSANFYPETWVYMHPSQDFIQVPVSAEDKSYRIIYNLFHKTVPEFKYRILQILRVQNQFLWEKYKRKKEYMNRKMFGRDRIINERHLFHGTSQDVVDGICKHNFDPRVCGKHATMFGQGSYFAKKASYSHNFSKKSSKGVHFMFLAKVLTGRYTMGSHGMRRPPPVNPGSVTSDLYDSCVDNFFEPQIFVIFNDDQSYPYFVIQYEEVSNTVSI
In words: PARP7 inhibitory activity assay (histone-coated 384-well plate, chemiluminescence). The format is biochemical. The source says: Inhibition rate (%) calculation formula: […]

A short description of data set [4]: Liver microsomal stability study, human. In kind it is in vitro ADME. To be noted: Human liver microsomes. The procedure:
as §1

The target of data set [5] is T2, PARP2 (Homo sapiens, UniProt Q9UGN5).
T2 construct: purchased BPS Bioscience
T2 sequence (Q9UGN5 whole entry): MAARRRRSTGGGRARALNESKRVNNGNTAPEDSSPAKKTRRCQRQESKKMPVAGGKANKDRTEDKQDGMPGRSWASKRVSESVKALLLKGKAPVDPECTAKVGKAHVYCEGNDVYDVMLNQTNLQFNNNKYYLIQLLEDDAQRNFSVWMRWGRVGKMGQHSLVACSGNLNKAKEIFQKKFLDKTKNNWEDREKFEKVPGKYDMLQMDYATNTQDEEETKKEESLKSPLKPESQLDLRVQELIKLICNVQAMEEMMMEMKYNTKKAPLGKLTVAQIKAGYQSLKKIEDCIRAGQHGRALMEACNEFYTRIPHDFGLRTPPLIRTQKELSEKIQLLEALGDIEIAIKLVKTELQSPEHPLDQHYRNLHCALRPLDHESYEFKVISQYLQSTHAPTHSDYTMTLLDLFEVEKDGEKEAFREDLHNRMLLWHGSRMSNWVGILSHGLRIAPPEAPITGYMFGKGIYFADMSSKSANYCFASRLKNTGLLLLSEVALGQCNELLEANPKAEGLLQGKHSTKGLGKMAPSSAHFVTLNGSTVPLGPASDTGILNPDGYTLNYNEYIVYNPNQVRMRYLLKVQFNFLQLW
Description: PARP2 inhibitory activity assay (BPS PARP2 Chemiluminescent Activity Assay Kit). In kind it is biochemical. The source says:
The PARP2 enzyme activity assay method used in the present disclosure employs reagents from the PARP2 Chemiluminescent Activity Assay Kit from BPS Bioscience, USA. […] The test results are shown in Table 1. /” indicates not tested.

Data set [6] is described as follows: Mouse pharmacokinetic study. The format is in vivo. To be noted: BALB/c mice; for AUC(0-t) / Cmax / Tmax / half-life: female, mouse, plasma. The source says: • (1) Study design: Female healthy Balb/c mice (specific pathogen-free (SPF) grade) were used as test animals, divided into 2 dose groups with 3 mice in each group, for single intravenous injection and single oral gavage administration, respectively. The vehicle formulations were […] (DMSO)+10% Solutol+85% Saline and 0.5% methylcellulose (MC), respectively. • (2) Plasma sample collection and processing: Blood was collected from the orbital venous plexus of the mice. After intravenous (IV) bolus administration, samples were collected at 0.083 h, 0.25 h, 0.5 h, 1 h, 2 h, 4 h, 8 h, and 24 h. After oral (PO) administration, samples were collected at 0.25 h, 0.5 h, 1 h, 2 h, 4 h, 6 h, 8 h, and 24 h. An appropriate volume of whole blood samples was collected with EDTA-K2 anticoagulation, placed on wet ice after collection, and plasma was separated by centrifugation within 30 min (centrifugation conditions: 4000 rpm, 10 minutes, 2-8° C.). The collected plasma samples were stored in a −70° C. freezer before analysis. After analysis, the remaining plasma samples continued to be stored in a −70° C. freezer. • (3) Analytical batch processing and pharmacokinetic parameter calculation: The concentration of the test substance in the plasma samples was determined. The accuracy of quality control samples was evaluated concurrently with the analysis of the samples, with the requirement that more than 66.7% of the quality control samples have an accuracy between 80-120%. Using the plasma concentration data at different time points, pharmacokinetic parameters such as C0 (IV), Area Under the Curve (AUC)(0-t), T1/2, Cmax, Tmax, and Mean Residence Time (MRT) were calculated using WinNonlin.

Bounds are passed on as bounds.

Broadly, the half-life is the time needed for the level to fall by half in the phase considered. For orientation: IC50 means the concentration at which inhibition is half-maximal. Read a low IC50 as higher potency. For `CC(=O)Nc1cc(C(F)(F)F)cnc1N1CCN(C(=O)[C@H]2C[C@H](NC(C)(C)c3cc(C(F)(F)F)c(=O)[nH]n3)C2)CC1` [Embodiment 61, N-(2-(4-((1R,3R)-3-((2-(6-oxo-5-(trifluoromethyl)-1,6-dihydropyridazin-3-yl)propan-2-yl)amino)cyclobutane-1-carbonyl)piperazin-1-yl)-5-(trifluoromethyl)pyridin-3-yl)acetamide], the half-life at 1 µM in data set [1], in data set [2] and in data set [4] was greater than 60 min in each case. The values for the IC50 in data set [3] and in data set [5] were less than 10 nM and 100 to 1000 nM, respectively.
With `CC(=O)Nc1cc(C(F)(F)F)cnc1N1CCN(C(=O)[C@H]2C[C@H](NCc3cc(C(F)(F)F)c(=O)[nH]n3)C2)CC1` [Embodiment 63, N-(2-(4-((1R,3R)-3-(((6-oxo-5-(trifluoromethyl)-1,6-dihydropyridazin-3-yl)methyl)amino)cyclobutane-1-carbonyl)piperazin-1-yl)-5-(trifluoromethyl)pyridin-3-yl)acetamide], the half-life at 1 µM in data set [1], in data set [2] and in data set [4] was greater than 60 min in each case. Besides, the values for the IC50 in data set [3] and in data set [5] were less than 10 nM and 100 to 1000 nM, respectively.
What is called AUC(0-t) is exposure summed from dosing to a finite time, without extrapolation to infinity. As a reminder, the Cmax is the maximum level reached in the sampled fluid or tissue. As a reminder, the Tmax is the time at which the peak concentration occurs. The compound `O=c1[nH]nc(CN[C@H]2C[C@H](C(=O)N3CCN(c4ncc(C(F)(F)F)cn4)CC3)C2)cc1C(F)(F)F` [Embodiment 12] showed a half-life at 1 µM in data set [1] greater than 60 min. For the same compound, the half-life at 1 µM in data set [2] is greater than 60 min. In addition, in data set [6] (PO, 10 mg/kg, 0.5% MC), the F came out at 59.45%, the exposure AUC(0-t) came to 10700 ng·h/mL, the highest level (Cmax) was 7060 ng/mL and the Tmax was determined as 15 min. This compound also gave a half-life in data set [6] (PO, 10 mg/kg, 0.5% MC) of 48.6 min. Besides, in data set [6] (IV, 1 mg/kg), the AUC(0-t) stood at 1790 ng·h/mL, the concentration peaked (Cmax) at 1200 ng/mL, the time of peak concentration (Tmax) is 4.8 min and the half-life was 53.4 min. This compound also yielded an IC50 in data set [3] of 10 to 100 nM. The compound further yielded a half-life at 1 µM in data set [4] greater than 60 min.
Compound `O=C(C1CN(Cc2cc(C(F)(F)F)c(=O)[nH]n2)C1)N1CCN(c2ncc(C(F)(F)F)cn2)CC1` [Embodiment 5, 4-(trifluoromethyl)-6-((3-(4-(5-(trifluoromethyl)pyrimidin-2-yl)piperazine-1-carbonyl)azetidin-1-yl)methyl)pyridazin-3(2H)-one] registered a half-life at 1 µM in data set [1] greater than 60 min. In addition, in data set [2], the half-life at 1 µM is greater than 60 min. In data set [6] (PO, 10 mg/kg, 0.5% MC), the F is on record as 66.00%, the exposure AUC(0-t) was 52100 ng·h/mL, the highest level (Cmax) was 22000 ng/mL and the time to peak (Tmax) amounted to 19.8 min. Also, in data set [6] (PO, 10 mg/kg, 0.5% MC), the half-life is 58.8 min. Further, in data set [6] (IV, 1 mg/kg), the AUC(0-t) is 7900 ng·h/mL, the Cmax came out at 4210 ng/mL, the time of peak concentration (Tmax) came to 4.8 min and the half-life was 76.8 min. The half-maximal inhibitory concentration (IC50) in data set [3] is 10 to 100 nM. In addition, the half-life at 1 µM in data set [4] was greater than 60 min.
